The values below are quoted from earlier work in patent publication US6197535A, “Methods for purifying and assaying a conus γ-carboxylase” (University of Utah Research Foundation, priority 1999, dated 2001).

In the data set the test system is N-methyl-D-aspartate receptor. The note with it: cited from earlier work.

Conantokin-G: the “inhibition of the N-methyl-D-aspartate receptor” value was “inhibits”.
